Measured values taken from ChEMBL document CHEMBL1201862, “PubChem BioAssay data set” (2004).
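Cultured in 96-well plates, cells were exposed to test compound for 48 hours across five concentrations. GI50 is the concentration that inhibits growth by half.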 Calls of active or inactive are those of the source. Cut-off read from the data, not from the text of the source: active = GI50 up to about 1.1 µM and inactive = higher.

Columns and labels:
Test in all cases: NCI anticancer screen, dose series, 48 h
[1] = tested on: 786-0
[2] = tested on: A498
[3] = tested on: ACHN
[4] = tested on: BT-549
[5] = tested on: CAKI-1
[6] = tested on: CCRF-CEM
[7] = tested on: COLO 205
[8] = tested on: DU-145
[9] = tested on: EKVX
[10] = tested on: HCC 2998
[11] = tested on: HCT-116
[12] = tested on: HCT-15
[13] = tested on: HL-60
[14] = tested on: HOP-62
[15] = tested on: HOP-92
[16] = tested on: HT-29
[17] = tested on: Hs-578T
[18] = tested on: IGROV-1
[19] = tested on: K562
[20] = tested on: KM12
[21] = tested on: LOX IMVI
[22] = tested on: M14
[23] = tested on: MCF7
[24] = tested on: MDA-MB-231
[25] = tested on: MDA-MB-435
[26] = tested on: MOLT-4
[27] = tested on: NCI-H226
[28] = tested on: NCI-H23
[29] = tested on: NCI-H460
[30] = tested on: NCI/ADR-RES
[31] = tested on: OVCAR-4
[32] = tested on: OVCAR-8
[33] = tested on: PC-3
[34] = tested on: RXF 393
[35] = tested on: SF-268
[36] = tested on: SF-295
[37] = tested on: SF-539
[38] = tested on: SK-MEL-28
[39] = tested on: SK-MEL-2
[40] = tested on: SK-MEL-5
[41] = tested on: SK-OV-3
[42] = tested on: SNB-19
[43] = tested on: SNB-75
[44] = tested on: SR
[45] = tested on: SW-620
[46] = tested on: T47D
[47] = tested on: TK-10
[48] = tested on: U-251
[49] = tested on: UACC-257
[50] = tested on: UACC-62
[51] = tested on: UO-31
[52] = tested on: A549
[53] = tested on: MDA-N
[54] = tested on: Malme-3M
[55] = tested on: NCI-H522
[56] = tested on: OVCAR-3
[57] = tested on: OVCAR-5
[58] = tested on: RPMI-8226
[59] = tested on: SN12C

SMILES: O=c1[nH]c2cc(F)c(F)cc2nc1Cc1ccccc1
- GI50 [1]: > 100 µM (inactive)
- GI50 [2]: > 100 µM (inactive)
- GI50 [3]: > 100 µM (inactive)
- GI50 [4]: > 100 µM (inactive)
- GI50 [5]: > 100 µM (inactive)
- GI50 [6]: > 100 µM (inactive)
- GI50 [7]: > 100 µM (inactive)
- GI50 [8]: > 100 µM (inactive)
- GI50 [9]: > 100 µM (inactive)
- GI50 [10]: > 100 µM (inactive)
- GI50 [11]: > 100 µM (inactive)
- GI50 [12]: > 100 µM
- GI50 [13]: > 100 µM (inactive)
- GI50 [14]: > 100 µM (inactive)
- GI50 [15]: > 100 µM (inactive)
- GI50 [16]: > 100 µM (inactive)
- GI50 [17]: > 100 µM (inactive)
- GI50 [18]: > 100 µM (inactive)
- GI50 [19]: 30 µM (inactive)
- GI50 [20]: > 100 µM (inactive)
- GI50 [21]: > 100 µM (inactive)
- GI50 [22]: > 100 µM (inactive)
- GI50 [23]: > 100 µM (inactive)
- GI50 [24]: > 100 µM (inactive)
- GI50 [25]: > 100 µM (inactive)
- GI50 [26]: 16.1 µM (inactive)
- GI50 [27]: > 100 µM (inactive)
- GI50 [28]: > 100 µM (inactive)
- GI50 [29]: > 100 µM (inactive)
- GI50 [30]: > 100 µM (inactive)
- GI50 [31]: > 100 µM (inactive)
- GI50 [32]: > 100 µM (inactive)
- GI50 [33]: > 100 µM (inactive)
- GI50 [34]: > 100 µM (inactive)
- GI50 [35]: > 100 µM (inactive)
- GI50 [36]: > 100 µM (inactive)
- GI50 [37]: > 100 µM (inactive)
- GI50 [38]: > 100 µM (inactive)
- GI50 [39]: > 100 µM (inactive)
- GI50 [40]: > 100 µM (inactive)
- GI50 [41]: > 100 µM (inactive)
- GI50 [42]: > 100 µM (inactive)
- GI50 [43]: > 100 µM (inactive)
- GI50 [44]: > 100 µM (inactive)
- GI50 [45]: > 100 µM (inactive)
- GI50 [46]: > 100 µM (inactive)
- GI50 [47]: > 100 µM (inactive)
- GI50 [48]: > 100 µM (inactive)
- GI50 [49]: > 100 µM (inactive)
- GI50 [50]: > 100 µM (inactive)
- GI50 [51]: > 100 µM (inactive)

SMILES: Nc1nc(Cl)c(/C=N\O)c(NCC2(CO)CCC2)n1
- GI50 [1]: 41.7 µM (inactive)
- GI50 [2]: 19.1 µM (inactive)
- GI50 [52]: 28.4 µM (inactive)
- GI50 [3]: 26.3 µM (inactive)
- GI50 [4]: 32.6 µM (inactive)
- GI50 [5]: 25.6 µM (inactive)
- GI50 [6]: 28.5 µM (inactive)
- GI50 [7]: 30.3 µM (inactive)
- GI50 [8]: 40.4 µM (inactive)
- GI50 [9]: 17.3 µM (inactive)
- GI50 [10]: 68.7 µM (inactive)
- GI50 [11]: 13.7 µM (inactive)
- GI50 [12]: 60.8 µM
- GI50 [13]: > 10 µM (inactive)
- GI50 [14]: 30.6 µM (inactive)
- GI50 [15]: 19.6 µM (inactive)
- GI50 [16]: 59.3 µM (inactive)
- GI50 [17]: 28.2 µM (inactive)
- GI50 [18]: > 10 µM (inactive)
- GI50 [19]: 14 µM (inactive)
- GI50 [20]: 6.25 µM (inactive)
- GI50 [21]: 9.95 µM (inactive)
- GI50 [23]: 25.2 µM (inactive)
- GI50 [24]: 51.2 µM (inactive)
- GI50 [25]: 40.2 µM (inactive)
- GI50 [53]: 44.4 µM (inactive)
- GI50 [26]: 13.5 µM (inactive)
- GI50 [54]: 30.6 µM (inactive)
- GI50 [27]: 23.2 µM (inactive)
- GI50 [28]: 1.73 µM (inactive)
- GI50 [29]: 32.1 µM (inactive)
- GI50 [55]: 14.8 µM (inactive)
- GI50 [30]: 28.5 µM (inactive)
- GI50 [56]: 24.2 µM (inactive)
- GI50 [31]: 27 µM (inactive)
- GI50 [57]: 70.8 µM (inactive)
- GI50 [32]: 36.2 µM (inactive)
- GI50 [33]: 43 µM (inactive)
- GI50 [58]: 8.11 µM (inactive)
- GI50 [34]: 22.4 µM (inactive)
- GI50 [35]: > 100 µM (inactive)
- GI50 [36]: 21.2 µM (inactive)
- GI50 [37]: 33.8 µM (inactive)
- GI50 [38]: 54.6 µM (inactive)
- GI50 [40]: 28.8 µM (inactive)
- GI50 [59]: 68.4 µM (inactive)
- GI50 [42]: 53.2 µM (inactive)
- GI50 [43]: 59.3 µM (inactive)
- GI50 [44]: 11.6 µM (inactive)
- GI50 [45]: > 100 µM (inactive)
- GI50 [47]: 21.8 µM (inactive)
- GI50 [48]: > 100 µM (inactive)
- GI50 [49]: 29.3 µM (inactive)
- GI50 [51]: 19.9 µM (inactive)
